Measured values as given in patent publication US9186361B2, “Compounds and compositions for the treatment of parasitic diseases” (Novartis AG, priority 2013, dated 2015).
pEC50: −log10 of the molar value.

How the values were obtained:
[1] = tested on: Leishmania donovani axenic amastigote parasites; experiment: Assay for Leishmania proliferation in vitro (axenic amastigotes, Cell TiterGlo); type: cell-based; conditions: 48 h, 2 day incubation, read-out: L. donovani amastigotes EC50
Procedure, shortened: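 L. donovani axenic amastigotes (9600 per well) are cultured with compound for 2 days at 37° C, 5% CO2 in RPMI-based medium at pH 5.5. Viability is read by CellTiterGlo luminescence, and EC50 is calculated.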

[2] = tested on: L. donovani HU3 strain in mouse peritoneal macrophages; experiment: Proliferation of L. donovani in mouse peritoneal macrophages (SybrGreen, high-content imaging); type: cell-based; conditions: Leishmania donovani, Peritoneal macrophage, 120 h; infected mouse peritoneal macrophages, 5 days; read-out: L. donavani Macrophage EC50
Procedure, shortened: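 Peritoneal macrophages from uninfected BALB/c mice were infected for 24 h with spleen-derived amastigotes (9-11 week infected mice), then exposed to compound for 5 days at 37° C. Fixed cells stained with SybrGreen and parasite nuclei counted by high-content imaging; EC50 calculated from inhibition.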

[3] = tested on: Trypanosoma cruzi amastigotes cultured in 3T3 fibroblast cells; experiment: Assay for proliferation of kinetoplastid parasite Trypanosoma cruzi (beta-galactosidase/CPRG readout); type: cell-based; conditions: NIH3T3, 144 h, Tulahuen strain in 3T3 cells, 6 day incubation, read-out: T cruzi EC50
[4] = tested on: Trypanosoma brucei Lister 427 strain; experiment: Assay for proliferation of kinetoplastid parasite Trypanosoma brucei (Cell Titer Glo); type: cell-based; conditions: bloodstream form, 48 hours, read-out: T. brucei EC50
Excerpt: The proliferation is quantified by the addition of Cell Titer Glo (Promega®) a luminescent cell viability assay that measures the number of viable cells in culture based on the quantification of cellular ATP amount, which is an indicator of metabolically active cells. The following assay illustrates the invention without in any way limiting the scope of the invention. This parasite proliferation assay measures the increase in parasite growth using an assay that measures ATP activity, Cell Titer Glo®.
Trypanosoma brucei Lister 427 strain is grown in HMI-9 Trypanosome media for T. brucei bloodstream form. 30 μl of HMI-9 media is dispensed into 384 well assay plates. 200 nL of compounds of the invention (in DMSO), including anti-trypanosome controls (Pentamidine and suramin), are then transferred into the assay plates, as well as DMSO alone to serve as a negative control for inhibition. Then 25 μl of a suspension of T. brucei culture in HMI-9 media is dispensed into the assay plates. The final concentration of parasites in culture corresponds to 1.7% of 0.5 uM ATP activity with Cell Titer Glo® in HMI-9 media. The plates are placed in a 37° C. incubator for 48 hours in an atmospheric environment containing 5% CO2. 40 μl of Cell Titer Glo® is dispensed into the plates. The plates are then read for luminescence. The percentage inhibition of 50%, EC50, is calculated for each compound.

[5] = cited from earlier work

## O=C(Nc1ccc(Cl)c(-c2nc3ncc(NC(=O)C4(C(F)(F)F)CCC4)cc3[nH]2)c1)c1ccc(F)o1 [Example 71, N-[4-chloro-3-(6-{[1-(trifluoromethyl)cyclobutane]amido}-1H-imidazo[4,5-b]pyridin-2-yl)phenyl]-5-fluorofuran-2-carboxamide]
[1]
  pEC50: 5.85
[2]
  pEC50: 6.58
[3]
  pEC50: 6.82
[4]
  pEC50: 7.52

## O=C(CCN1CCOCC1)Nc1cnc2nc(-c3cc(NC(=O)c4ccc(F)o4)ccc3Cl)[nH]c2c1 [Example 72, N-(4-chloro-3-{6-[3-(morpholin-4-yl)propanamido]-1H-imidazo[4,5-b]pyridin-2-yl}phenyl)-5-fluorofuran-2-carboxamide]
[1]
  pEC50: < 4.60
[2]
  pEC50: 4.47
[3]
  pEC50: < 4.70
[4]
  pEC50: 5.27

## CC(C)OC(=O)Nc1cnc2nc(-c3cccc(NC(=O)c4ccc(F)o4)c3)[nH]c2c1 [Example 78, propan-2-yl N-{2-[3-(5-fluorofuran-2-amido)phenyl]-1H-imidazo[4,5-b]pyridin-6-yl}carbamate]
[1]
  pEC50: 5.33
[2]
  pEC50: 5.86
[3]
  pEC50: 5.84
[4]
  pEC50: 6.70

## Nc1nc(N)nc(Nc2ccc([As]3SCC(CO)S3)cc2)n1 (centres unmarked) [Melarsoprol]
[5]; of the encephalopathy cases
  reactive encephalopathy cases that result in death: 10-70%
[5]; patients injected with the drug
  patients who developed reactive encephalopathy: 3-10%
